Experimental data: US20230048888A1, “USE OF TRIAZOLOTRIAZINE DERIVATIVE IN TREATMENT OF DISEASES” (ZHEJIANG VIMGREEN PHARMACEUTICALS, LTD., priority 2019, published 2023)
Each block holds one compound with its values, some of them ahead of it.

Key:
[1] = test system: haloperidol-induced stiffness; assay: Haloperidol-induced Parkinson's disease stiffness model in CD-1 mice (rearing and bar tests); assay type: in vivo
From the text: Parkinson's disease (PD) is a common class of degenerative disease of the nervous system with the main pathological changes including the loss of substantia nigra dopaminergic neurons and the decrease of dopamine transmitter content, leading to tremor at rest, muscle stiffness, […], postural reflex disorders and other clinical symptoms. Haloperidol, a dopamine D2 receptor blocker, can block the dopamine D2 receptor in the striatum, leading to mouse dystonic postures, namely, stiffness and hypokinesia. This model is a recognized animal model of Parkinson's syndrome. The ameliorative effect of a test substance on the stiffness symptom of Parkinson's disease induced by haloperidol in CD-1 mice was evaluated. 57 SPF-grade male CD-1 mice (4 weeks old at the time of purchase and 8 weeks old at the time of experiment) with the weight of about 40 g were randomly divided into 5 groups, namely, a vehicle group (n=11), a group of 1 mg/kg benzene sulfonate of Compound 40 (n=11), a group of 3 mg/kg benzene sulfonate of Compound 40 (n=12), a group of 10 mg/kg benzene sulfonate of Compound 40 (n=12), and a group of 30 mg/kg benzene sulfonate of Compound 40 (n=11). 1 mg/kg haloperidol was injected subcutaneously at an injection volume of 10 ml/kg. 30 minutes after the injection, Compound 40 at each dose was intragastrically infused at a volume of 10 ml/kg. At the 1st hour and the 4th hour after the administration was completed, the rearing and bar tests were performed respectively, and the number of standings and on-bar time of the mice were counted to evaluate the ameliorative effect of Compound 40 on the stiffness symptom of haloperidol-induced Parkinson's disease in CD-1 mice. […] Firstly, the acetate of Compound 22 at each dose was intragastrically infused at a volume of 10 ml/kg. After 30 min, 1 mg/kg haloperidol was injected subcutaneously at an injection volume of 10 ml/kg. At the 1st hour and the 4th hour after the administration was completed, the rearing and bar tests were performed respectively, and the number of standings and on-bar time of the mice were counted to evaluate the ameliorative effect of the acetates of Compound 22 on the stiffness symptom of haloperidol-induced Parkinson's disease in CD-1 mice. […] Firstly, Compound 27 at each dose was intragastrically infused at a volume of 10 ml/kg. After 30 min, 1 mg/kg haloperidol was injected subcutaneously at an injection volume of 10 ml/kg. At the 1st hour and the 4th hour after the administration was completed, the rearing and bar tests were performed respectively, and the number of standings and on-bar time of the mice were counted to evaluate the ameliorative effect of Compound 27 on the stiffness symptom of haloperidol-induced Parkinson's disease in CD-1 mice. The mice were subcutaneously injected with haloperidol at abdomen at a dose of 1 mg/kg, with the concentration of a working solution of 0.1 mg/ml and an injection volume of 10 ml/kg. At the 1st hour and the 4th hour after drug intervention, the mice were put into a white transparent plastic bucket with a diameter of 20 cm and a height of 21 cm. The mice were allowed to acclimate in the bucket for 5 min before starting video recording. The spontaneous activity behaviors of the mice within 10 minutes were recorded, whereby the number of standings was counted. The more the standings, the more frequent the spontaneous exploration activities of the mice, and the lower the degree of stiffness. At the time points of 1st and 4th hours after the rearing test was completed, bar test was carried out. The mice were placed on a long wooden bar with a diameter of […] and a height of 6 cm. The mice were let to hold the wooden bar with forelimbs, only with the buttocks or hind limbs on the ground. The timing was stopped when the hind limbs left the bench top or the fore limbs left the wooden bar, and the on-bar time of the mice was recorded. Each mouse was tested 3 times, and the maximum on-bar time and the average on-bar time were counted. […]

[2] = biological target: T1, adenosine receptors A2A (Homo sapiens, UniProt P29274); assay: TR-FRET-based cAMP accumulation assay in hADORA2A-HEK293 cells; assay type: cell-based; details: NECA at EC80, hADORA2A-HEK293, read-out: A2AR activity (IC50)
T1 construct: expressed in transfected cells; host or cells: HEK293 (hADORA2A-HEK293)
T1 sequence (P29274 whole entry): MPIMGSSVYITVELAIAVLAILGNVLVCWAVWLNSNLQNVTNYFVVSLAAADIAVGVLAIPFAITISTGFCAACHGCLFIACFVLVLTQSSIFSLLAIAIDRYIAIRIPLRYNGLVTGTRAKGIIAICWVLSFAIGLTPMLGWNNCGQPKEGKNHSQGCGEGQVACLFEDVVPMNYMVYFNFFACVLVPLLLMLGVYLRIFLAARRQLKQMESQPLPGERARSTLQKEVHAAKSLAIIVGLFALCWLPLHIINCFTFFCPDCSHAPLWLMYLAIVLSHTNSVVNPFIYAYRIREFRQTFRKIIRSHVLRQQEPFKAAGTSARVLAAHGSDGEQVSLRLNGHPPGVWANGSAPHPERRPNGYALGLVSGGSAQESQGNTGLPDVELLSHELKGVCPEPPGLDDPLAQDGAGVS
Experimental: The inhibitory effects of the test compounds on the adenosine receptors A2A were evaluated by TR-FRET-based cAMP accumulation assay. The method included, in HEK293 cells (hADORA2A-HEK293) expressing A2AR, the production of cAMP stimulated by NECA and the inhibitory effect of A2A receptor antagonists on cAMP. All cells were cultured in a complete medium at 37° C. in the presence of 5% CO2. After being digested with trypsin, the cells were collected by centrifugation at 200 g for 5 minutes. The cells were resuspended in a fresh complete medium, and then the cell viability was counted by a trypan blue exclusion method. […] The cells were diluted with Hank's buffer solution containing HEPES (5 mM), BSA stabilizer (0.1%) and Rolipram (10 μM), then added to a 384-well white non-transparent plate (cells/well, 10 μl/well), and incubated with the test compound at an appropriate concentration (11 concentrations) for 20 minutes at room temperature. Then, the A2A receptor agonist NECA (final concentration=EC80, which was determined in the same experiment performed earlier) was added to the sample, and the sample was incubated again at 37° C. for 30 minutes.
An inhibition rate (%) was calculated according to the following formula, and an IC50 value was calculated from a concentration-inhibition (%) curve after log conversion.
A curve corresponding to the dose was fitted by using XLfit software and the IC50 was determined.

[3] = Experiment II, 3 mg/kg intragastric, 1 h
[4] = Experiment II, 3 mg/kg intragastric, 4 h
[5] = Experiment II, 10 mg/kg intragastric, 1 h
[6] = Experiment II, 10 mg/kg intragastric, 4 h
[7] = Experiment II, 30 mg/kg intragastric, 1 h
[8] = Experiment II, 30 mg/kg intragastric, 4 h
[9] = Experiment III, 3 mg/kg intragastric, 1 h
[10] = Experiment III, 3 mg/kg intragastric, 4 h
[11] = Experiment III, 10 mg/kg intragastric, 1 h
[12] = Experiment III, 10 mg/kg intragastric, 4 h
[13] = Experiment III, 30 mg/kg intragastric, 1 h
[14] = Experiment III, 30 mg/kg intragastric, 4 h

SMILES: CC(=O)O.Nc1nc(NCCc2ccc(NC3COC3)cc2)nc2nc(-c3ccco3)nn12 [Acetate of Compound 22, 2-(furan-2-yl)-N5-(4-(oxetane-3-ylamino)phenethyl)-[1,2,4]triazolo[1,5-a][1,3,5]triazine-5,7-diamine acetate]
Average on-bar time [1, 3]: 109.38 ± 13.74 s | Maximum on-bar time [1, 3]: 157.50 ± 18.11 s | Average on-bar time [1, 4]: 109.33 ± 26.37 s | Maximum on-bar time [1, 4]: 172.25 ± 58.28 s | Average on-bar time [1, 5]: 41.88 ± 10.56 s | Maximum on-bar time [1, 5]: 77.13 ± 25.78 s | Average on-bar time [1, 6]: 33.17 ± 6.69 s | Maximum on-bar time [1, 6]: 50.50 ± 12.24 s | Average on-bar time [1, 7]: 26.17 ± 3.88 s | Maximum on-bar time [1, 7]: 42.25 ± 8.18 s | Average on-bar time [1, 8]: 24.13 ± 4.28 s | Maximum on-bar time [1, 8]: 32.88 ± 6.21 s

SMILES: Nc1nc(NCCc2ccc(NC3COC3)cc2)nc2nc(-c3ccco3)nn12 [Compound 22, 2-(furan-2-yl)-N5-(4-(oxetan-3-ylamino)phenethyl)-[1,2,4]triazolo[1,5-a][1,3,5]triazine-5,7-diamine]
IC50 [2]: 7.07 nM

IC50 [2]: 10.6 nM
SMILES: COCCNc1ccc(CCNc2nc(N)n3nc(-c4ccco4)nc3n2)cc1 [Compound 27, 2-(furan-2-yl)-N5-(4-((2-methoxyethyl)amino)phenethyl)-[1,2,4]triazolo[1,5-a][1,3,5]triazine-5,7-diamine]
Average on-bar time [1, 9]: 56.83 ± 11.67 s | Maximum on-bar time [1, 9]: 88.00 ± 22.07 s | Average on-bar time [1, 10]: 75.11 ± 19.52 s | Maximum on-bar time [1, 10]: 109.33 ± 28.68 s | Average on-bar time [1, 11]: 34.83 ± 8.63 s | Maximum on-bar time [1, 11]: 61.38 ± 15.59 s | Average on-bar time [1, 12]: 39.13 ± 14.33 s | Maximum on-bar time [1, 12]: 55.13 ± 18.32 s | Average on-bar time [1, 13]: 22.04 ± 4.19 s | Maximum on-bar time [1, 13]: 35.00 ± 8.59 s | Average on-bar time [1, 14]: 23.00 ± 4.46 s | Maximum on-bar time [1, 14]: 31.88 ± 5.75 s

IC50 [2]: 9.66 nM
SMILES: Cn1nnc(-c2ccc(CCNc3nc(N)n4nc(-c5ccco5)nc4n3)cc2)n1 [Compound 40, N5-(4-(2-methyl-2H-tetrazol-5-yl)phenethyl)-2-(furan-2-yl)-[1,2,4]triazolo[1,5-a][1,3,5]triazine-5,7-diamine]

SMILES: CCn1c(=O)c2c(nc(/C=C/c3ccc(OC)c(OC)c3)n2C)n(CC)c1=O [Istradefylline, reference compound]
Average on-bar time [1, 5]: 23.04 ± 4.88 s | Maximum on-bar time [1, 5]: 30.38 ± 5.84 s | Average on-bar time [1, 6]: 24.67 ± 5.21 s | Maximum on-bar time [1, 6]: 35.75 ± 8.73 s | Average on-bar time [1, 11]: 23.71 ± 6.50 s | Maximum on-bar time [1, 11]: 40.75 ± 13.17 s | Average on-bar time [1, 12]: 34.08 ± 6.69 s | Maximum on-bar time [1, 12]: 54.75 ± 15.58 s
